What was measured:
[1] = target: HDAC5 (Homo sapiens, UniProt Q9UQL6); test: HDAC catalytic activity, fluorogenic substrate; format: biochemical; settings: 10-dose, 3-fold serial dilution starting at 100 μM, duplicates
Method: (§1) The compound (racemate) was resuspended in 100 mM DMSO and tested in a 10-dose IC50 with 3-fold serial dilution starting at 100 μM against HDACs 1-9, and 11. As reference compounds, Trichostatin A (TSA) and TMP269 were tested in a 10-dose IC50 with 3-fold serial dilution starting at 10 μM or 1 μM.
(§2) 10 μM Fluorogenic peptide from p53 residues 379-382 (RHKK(Ac)AMC) was used for the substrate for HDAC 1, 2, 3, and 6, 50 μM Fluorogenic HDAC Class2a Substrate (Trifluoroacetyl Lysine) was used for the substrate for HDAC 4, 5, 7, 9, and 11, 100 μM Fluorogenic peptide from p53 residues 379-382 (RHK(Ac)K(Ac)AMC) was used for the substrate for HDAC8.
(§3) IC50 values were calculated using the GraphPad Prism 4 program based on a sigmoidal dose-response equation and the blank (DMSO) value concentration was entered as 1.00E-12 M for curve fitting.

[2] = target: HDAC4 (Homo sapiens, UniProt P56524); test: HDAC catalytic activity, fluorogenic substrate; format: biochemical; settings: 10-dose, 3-fold serial dilution starting at 100 μM, duplicates
HDAC4, sequence (P56524 whole entry, species assumed): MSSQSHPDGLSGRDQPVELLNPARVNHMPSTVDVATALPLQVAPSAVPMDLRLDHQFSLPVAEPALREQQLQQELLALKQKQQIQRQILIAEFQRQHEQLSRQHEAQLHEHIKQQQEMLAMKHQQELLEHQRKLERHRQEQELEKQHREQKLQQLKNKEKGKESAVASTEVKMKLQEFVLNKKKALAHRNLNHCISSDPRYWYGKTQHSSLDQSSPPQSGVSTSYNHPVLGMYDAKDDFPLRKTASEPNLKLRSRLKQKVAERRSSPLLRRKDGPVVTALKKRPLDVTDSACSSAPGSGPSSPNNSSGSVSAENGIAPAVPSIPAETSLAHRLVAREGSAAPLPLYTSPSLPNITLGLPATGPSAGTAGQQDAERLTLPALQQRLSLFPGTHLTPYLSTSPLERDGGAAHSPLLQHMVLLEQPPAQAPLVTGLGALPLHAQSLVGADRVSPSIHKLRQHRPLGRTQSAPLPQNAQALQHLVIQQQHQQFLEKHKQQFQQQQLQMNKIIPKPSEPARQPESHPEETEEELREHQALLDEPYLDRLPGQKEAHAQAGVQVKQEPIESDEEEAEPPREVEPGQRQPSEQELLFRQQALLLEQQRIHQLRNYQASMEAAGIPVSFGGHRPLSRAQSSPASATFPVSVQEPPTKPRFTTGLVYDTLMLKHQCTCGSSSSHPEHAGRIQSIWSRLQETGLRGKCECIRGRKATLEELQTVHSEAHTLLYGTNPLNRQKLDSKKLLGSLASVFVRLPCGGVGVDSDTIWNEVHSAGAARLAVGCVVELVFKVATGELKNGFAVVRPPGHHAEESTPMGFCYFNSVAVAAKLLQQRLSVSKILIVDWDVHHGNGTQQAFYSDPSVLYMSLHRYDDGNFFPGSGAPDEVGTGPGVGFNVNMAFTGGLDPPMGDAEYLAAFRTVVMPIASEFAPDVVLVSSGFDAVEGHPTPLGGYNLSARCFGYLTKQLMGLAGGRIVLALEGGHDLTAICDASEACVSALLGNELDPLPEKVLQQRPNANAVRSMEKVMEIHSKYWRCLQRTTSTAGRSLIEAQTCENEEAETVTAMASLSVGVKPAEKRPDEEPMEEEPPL
Method: as §1, §2, §3

[3] = target: HDAC3 (Homo sapiens, UniProt O15379); test: HDAC catalytic activity, fluorogenic substrate; format: biochemical; settings: 10-dose, 3-fold serial dilution starting at 100 μM, duplicates
HDAC3, sequence (O15379 whole entry): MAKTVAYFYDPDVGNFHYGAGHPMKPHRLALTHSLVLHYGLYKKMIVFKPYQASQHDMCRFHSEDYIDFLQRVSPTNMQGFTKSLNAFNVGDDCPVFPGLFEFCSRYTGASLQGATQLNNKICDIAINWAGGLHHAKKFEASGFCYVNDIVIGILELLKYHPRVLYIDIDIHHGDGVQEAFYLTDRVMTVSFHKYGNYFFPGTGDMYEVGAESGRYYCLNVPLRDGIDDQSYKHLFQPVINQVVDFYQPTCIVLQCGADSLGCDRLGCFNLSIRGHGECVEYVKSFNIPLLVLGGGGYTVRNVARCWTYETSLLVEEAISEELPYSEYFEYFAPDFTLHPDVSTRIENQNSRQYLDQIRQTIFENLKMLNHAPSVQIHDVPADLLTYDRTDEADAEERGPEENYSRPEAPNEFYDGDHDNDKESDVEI
HDAC3, sequence (Q9Y618 395-489 partner limits assumed): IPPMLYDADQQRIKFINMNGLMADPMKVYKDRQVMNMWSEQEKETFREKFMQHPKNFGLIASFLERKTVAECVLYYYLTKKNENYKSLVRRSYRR
Method: as §1, §2, §3

[4] = target: HDAC2 (Homo sapiens, UniProt Q92769); test: HDAC catalytic activity, fluorogenic substrate; format: biochemical; settings: 10-dose, 3-fold serial dilution starting at 100 μM, duplicates
HDAC2, sequence (Q92769 whole entry): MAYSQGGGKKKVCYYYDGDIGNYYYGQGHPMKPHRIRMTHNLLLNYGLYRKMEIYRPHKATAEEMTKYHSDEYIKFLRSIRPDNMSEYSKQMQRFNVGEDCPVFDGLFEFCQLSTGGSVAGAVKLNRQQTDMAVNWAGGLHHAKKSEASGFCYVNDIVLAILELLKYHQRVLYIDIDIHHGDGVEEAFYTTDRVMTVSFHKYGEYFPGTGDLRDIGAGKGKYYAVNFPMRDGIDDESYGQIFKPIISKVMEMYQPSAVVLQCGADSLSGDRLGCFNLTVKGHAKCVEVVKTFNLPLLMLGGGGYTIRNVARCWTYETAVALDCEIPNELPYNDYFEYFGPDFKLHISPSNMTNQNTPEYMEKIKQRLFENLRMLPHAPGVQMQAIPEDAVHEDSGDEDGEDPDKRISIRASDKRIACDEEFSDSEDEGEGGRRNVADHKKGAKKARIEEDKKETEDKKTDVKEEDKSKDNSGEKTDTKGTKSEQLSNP
Method: as §1, §2, §3

[5] = target: T1, HDAC11 (Homo sapiens, UniProt Q96DB2); test: HDAC catalytic activity, fluorogenic substrate; format: biochemical; settings: 10-dose, 3-fold serial dilution starting at 100 μM, duplicates
T1 sequence (Q96DB2 1-347): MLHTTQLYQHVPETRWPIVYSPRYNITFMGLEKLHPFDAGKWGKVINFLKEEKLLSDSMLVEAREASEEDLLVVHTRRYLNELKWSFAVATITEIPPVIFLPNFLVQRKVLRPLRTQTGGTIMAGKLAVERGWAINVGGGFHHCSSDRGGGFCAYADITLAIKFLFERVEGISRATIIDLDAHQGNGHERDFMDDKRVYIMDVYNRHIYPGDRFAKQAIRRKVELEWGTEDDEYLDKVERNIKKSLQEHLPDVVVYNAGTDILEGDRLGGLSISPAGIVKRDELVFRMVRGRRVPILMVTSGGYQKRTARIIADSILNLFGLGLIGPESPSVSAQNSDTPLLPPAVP
Method: as §1, §2, §3

[6] = system: BDNF and GluN2B expression in 293T cells; test: RT-PCR of BDNF and GluN2B mRNA in 293T cells; format: cell-based, human; settings: 6 hours after treating 293T cells, vs untreated group
Method: RT-PCR was used to measure the amount of BDNF and GluN2B in response to compounds of the present disclosure. 293T cells were dissociated using 0.05% Trypsin-EDTA solution and seeded in 24 well or 6 well dishes for RNA work. After incubation at 37° C. in a humidified atmosphere with 5% CO2 for 24 hours, the culture medium was replaced by a medium containing a series of concentrations of tested compounds diluted with the DMEM without FBS. Time course experiments were performed. The same volume of DMSO was used for negative control.
RNA was isolated from the cells after the compound treatment. After removing growth media, 0.3 to 0.4 mL of TRIzol™ per 1×10^5 to 10^7 cells were added directly to the culture dish to lyse the cells. […] RNA concentration was determined with the Thermo Scientific™ ρDrop™ plate. RNA quality was determined by measuring A230/260 and A260/280 ratio. […]
The PCR product was analyzed by agarose gel electrophoresis. […]
The BnH12 series drug according to the present disclosure was synthesized as a compound targeting HDAC4, which inhibits the expression of BDNF. […] In addition, it is known that the increase in the expression of BDNF increases the expression of GluN2B, and the mRNA level of GluN2B was also measured together with BDNF to measure the efficacy of BnH12001 in degrading HDAC4.

[7] = system: APP/PS1 mice hippocampus (Schaffer collateral-CA1); test: fEPSP slope and LTP in hippocampus of Alzheimer's animal model; format: in vivo; settings: 15 months old
Method: For intravenous injection, the tail vein injection method was used. […] In the drug injection test, the compound was administered once a day for about 11 to 13 days. 5 mice were used for the compound administration group and the control group, respectively.
For TC or hippocampus slice preparation. 9 to 10 weeks-old male C57BL/6J mice were anesthetized with isoflurane. Then, the brain was rapidly cooled via transcardial perfusion with ice-cold sucrose-artificial cerebrospinal fluid (aCSF). The brain was removed and placed in ice-cold sucrose aCSF. Paracoronal slices were prepared at an angle of 50° relative to the midline on a ramp at an angle of 10°. […]
Field recordings were made with a concentric bipolar electrode positioned in the stratum radiatum of the CA1 region using an extracellular glass pipette (3.5 MΩ) filled with aCSF. […] In all fEPSP experiments, the test stimulation were measured prior to the beginning of all the experiments (30 μA) and a test-pulse stimulation strength that evokes 50% of the maximum fEPSP was used. Baseline synaptic responses was recorded for 30 minutes, and then long-term potentiation (LTP) was induced by high-frequency stimulation (HFS; 100 Hz, 4 trains, 1 s duration, 20 s inter-train interval). […]
Excitatory postsynaptic potential (EPSP) was recorded by the whole-cell patch clamp method using a patch clamp amplifier (molecular devices, USA). […]

HDAC5, sequence (Q9UQL6 whole entry, species assumed): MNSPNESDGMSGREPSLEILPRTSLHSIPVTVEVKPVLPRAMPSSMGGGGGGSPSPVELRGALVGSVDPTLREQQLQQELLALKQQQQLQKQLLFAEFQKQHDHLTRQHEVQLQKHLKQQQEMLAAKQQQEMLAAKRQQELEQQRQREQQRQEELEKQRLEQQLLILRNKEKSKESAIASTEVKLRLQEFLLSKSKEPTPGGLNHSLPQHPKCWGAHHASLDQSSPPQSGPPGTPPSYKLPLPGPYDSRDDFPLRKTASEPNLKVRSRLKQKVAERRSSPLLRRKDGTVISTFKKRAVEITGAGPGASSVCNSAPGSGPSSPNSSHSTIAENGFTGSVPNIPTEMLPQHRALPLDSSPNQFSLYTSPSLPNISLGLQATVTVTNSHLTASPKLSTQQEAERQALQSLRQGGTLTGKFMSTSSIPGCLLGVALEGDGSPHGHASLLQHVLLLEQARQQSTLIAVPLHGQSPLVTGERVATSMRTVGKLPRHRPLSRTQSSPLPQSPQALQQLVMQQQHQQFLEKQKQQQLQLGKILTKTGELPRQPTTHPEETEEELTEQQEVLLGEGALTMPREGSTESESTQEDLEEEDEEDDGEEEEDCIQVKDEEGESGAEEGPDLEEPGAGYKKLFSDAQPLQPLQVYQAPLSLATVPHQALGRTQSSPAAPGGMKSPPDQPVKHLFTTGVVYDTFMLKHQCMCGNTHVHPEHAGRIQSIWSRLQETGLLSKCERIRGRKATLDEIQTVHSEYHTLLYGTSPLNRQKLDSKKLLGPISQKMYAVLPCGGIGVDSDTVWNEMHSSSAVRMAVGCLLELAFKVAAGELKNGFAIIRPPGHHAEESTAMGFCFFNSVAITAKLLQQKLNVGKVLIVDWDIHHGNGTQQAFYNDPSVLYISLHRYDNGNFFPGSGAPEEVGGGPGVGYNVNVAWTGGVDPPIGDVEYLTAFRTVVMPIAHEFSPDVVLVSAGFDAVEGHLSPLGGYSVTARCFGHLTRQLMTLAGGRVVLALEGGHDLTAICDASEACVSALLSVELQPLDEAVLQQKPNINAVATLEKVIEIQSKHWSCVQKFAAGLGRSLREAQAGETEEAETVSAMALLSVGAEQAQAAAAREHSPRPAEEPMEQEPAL

Row | Inhibitory effect on HDAC5 catalytic activity [1] | Inhibitory effect on HDAC4 catalytic activity [2] | Inhibitory effect on HDAC3 catalytic activity [3] | Inhibitory effect on HDAC2 catalytic activity [4] | Inhibitory effect on HDAC11 catalytic activity [5] | SMILES | BDNF mRNA level [6] | GluN2B mRNA level [6] | Slope of fEPSP in CA1 region of Schaffer collateral circuit (synaptic efficacy) [7] | Synaptic long-term potentiation (LTP) of the excitatory SC pathway [7]
1 | did not show any inhibitory effect | did not show any inhibitory effect | did not show any inhibitory effect | did not show any inhibitory effect | did not show any inhibitory effect | CC1CCC(C(=O)O)CN1C(=O)Cc1ccc(F)cc1Cl (racemic) [BnH12001, 1-(2-(2-chloro-4-fluorophenyl)acetyl)-6-methylpiperidine-3-carboxylic acid] | significantly increased | significantly increased | – | –
2 | – | – | – | – | – | C[C@@H]1CC[C@H](C(=O)O)CN1C(=O)Cc1ccc(F)cc1Cl [BnH12001 enantiomer (3S,6R, 98%<), (3S,6R)-1-(2-(2-chloro-4-fluorophenyl)acetyl)-6-methylpiperidine-3-carboxylic acid] | – | – | increased synaptic efficacy | significantly increased

Source: patent publication US20250188032A1, “NITROGEN-CONTAINING HETEROCYCLIC COMPOUNDS AND USES THEREOF” (BNH RESEARCH CO., LTD., priority 2022, published 2025)
